Assay results reported in publication PMC11949107, “Polyunsaturated fatty acids and their endocannabinoid-related metabolites activity at human TRPV1 and TRPA1 ion channels expressed in HEK-293 cells” (PeerJ, 2025).
Values joined by “and” are separate entries in the source; they are usually repeats but may differ in a detail not shown here. Identical values can stand only once.

Legend:
human TRPV1 = target: T1, human TRPV1 (Homo sapiens, UniProt Q8NER1); assay: Calcium 5 dye [Ca]i assay in HEK-293 Flp-In T-REx cells expressing TRPV1 (agonist response); type: cell-based; conditions: for Elevation of [Ca]i in HEK-293 TRPV1 cells compared with HEK-293 EV cells / Change of Ca5 fluorescence, Mean ± SEM, TRPV1 (10 µM): 10 µM; for Change of Ca5 fluorescence, Mean ± SEM, TRPV1 (10 µM): HEK-293 TRPV1 cells, percentage of predrug baseline; for TRPV1 response, Mean± SEM (N): 30 µM, one-way ANOVA comparison with capsaicin 10 µM; for Change in Ca5 fluorescence, individual experiments (CRC raw data): TRPV1 cells; for Emax ± SEM % TRPV1 (30 µM): highest tested concentration (30 µM) or derived from concentration-response curves (DHEA, AEA, NADA, capsaicin)
T1 construct: Life Technologies (cells); host or cells: Flp-In T-REx HEK-293
T1 sequence (Q8NER1 whole entry): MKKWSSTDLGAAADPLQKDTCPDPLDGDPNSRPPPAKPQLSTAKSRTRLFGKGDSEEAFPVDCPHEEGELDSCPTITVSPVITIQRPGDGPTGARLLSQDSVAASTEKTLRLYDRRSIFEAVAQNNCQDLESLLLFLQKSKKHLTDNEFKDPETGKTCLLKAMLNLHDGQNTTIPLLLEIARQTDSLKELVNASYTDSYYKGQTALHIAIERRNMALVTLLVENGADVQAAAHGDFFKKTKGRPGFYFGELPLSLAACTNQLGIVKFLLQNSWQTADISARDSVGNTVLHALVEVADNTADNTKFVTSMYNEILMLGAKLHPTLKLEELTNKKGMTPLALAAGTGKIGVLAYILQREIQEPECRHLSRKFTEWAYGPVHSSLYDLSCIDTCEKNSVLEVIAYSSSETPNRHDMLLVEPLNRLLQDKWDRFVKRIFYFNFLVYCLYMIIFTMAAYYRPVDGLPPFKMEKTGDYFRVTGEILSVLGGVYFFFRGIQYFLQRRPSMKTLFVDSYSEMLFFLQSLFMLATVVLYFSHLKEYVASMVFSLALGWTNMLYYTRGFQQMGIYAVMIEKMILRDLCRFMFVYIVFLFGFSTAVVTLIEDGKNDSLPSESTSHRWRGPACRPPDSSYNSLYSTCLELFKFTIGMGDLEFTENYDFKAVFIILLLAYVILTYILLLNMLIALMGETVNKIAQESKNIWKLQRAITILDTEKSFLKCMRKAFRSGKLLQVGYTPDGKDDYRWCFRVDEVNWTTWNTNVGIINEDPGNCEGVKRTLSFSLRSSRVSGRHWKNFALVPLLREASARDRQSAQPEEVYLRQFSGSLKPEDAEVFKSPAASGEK
Experimental: (§1) The cells were incubated in a 5% CO2 humidified atmosphere at 37 °C. Upon reaching approximately 90% confluence in 75 cm^2 flasks, they were trypsinized and transferred to poly-D-lysine coated 96-well plates (Corning, Castle Hill, NSW, Australia) in L-15 medium supplemented with 1% FBS, 100 U penicillin and 100 µg streptomycin ml^−1 (1% P/S), and 15 mM glucose (80 µL volume per well). After an overnight incubation (maximum of 16 h) in humidified room air at 37 °C, TRPV1 and TRPA1 receptor expression was induced 4 h before experimentation by adding to each well 10 µL tetracycline solution to a final concentration of 1 µg ml^−1.
(§2) Intracellular calcium [Ca]i levels were assessed using the calcium 5 kit from Molecular Devices (# R8186, Sunnyvale, CA, USA) on a FlexStation 3 Microplate Reader (Molecular Devices, Sunnyvale, CA, USA). […] Probenecid (cat # 50027; Biotium) which helps to prevent expulsion of calcium indicator from the cells was added to a final concentration of 1.25 mM. 90 µL of the dye were loaded into each well of the plate and incubated for 1 h before reading in the FlexStation 3 at 37 °C. Fluorescence was recorded every 2 s (λ excitation = 485 nm, λ emission = 525 nm) for 5 min. After 1 min of baseline recording, 20 µL of the drug, dissolved in HBSS with 1% dimethyl sulfoxide (DMSO) (cat # D2650; Sigma-Aldrich, Melbourne, Australia) was added (final DMSO concentration was 0.1% in well).
(§3) The response to agonists was expressed as a percentage change from the average baseline measurement taken for 60s before adding drug. Changes in fluorescence resulting from the addition of solvent were subtracted before normalization to baseline. Concentration–response curves (CRC), Emax and EC50 values were determined using a three-parameter logistic equation (GraphPad Prism, San Diego, CA, USA). […] Potencies were expressed as pEC50, which is the negative log of EC50 in moles per litre (Molar). Where appropriate, unpaired Student’s t-test were used to compare the responses of individual compounds in different conditions, while a one-way ANOVA followed by Dunnett’s multiple comparisons test was used to assess potential differences in responses elicited by a range of compounds. P < 0.05 was considered statistically significant.

HEK-293 EV cells = assay: Calcium 5 dye [Ca]i assay in HEK-293 empty vector (EV) cells; type: cell-based, human; conditions: 10 µM; HEK-293 EV cells; percentage of predrug baseline
Experimental: as §1
Intracellular calcium [Ca]i levels were assessed using the calcium 5 kit from Molecular Devices (# R8186, Sunnyvale, CA, USA) on a FlexStation 3 Microplate Reader (Molecular Devices, Sunnyvale, CA, USA). […] 90 µL of the dye were loaded into each well of the plate and incubated for 1 h before reading in the FlexStation 3 at 37 °C. […] After 1 min of baseline recording, 20 µL of the drug, dissolved in HBSS with 1% dimethyl sulfoxide (DMSO) (cat # D2650; Sigma-Aldrich, Melbourne, Australia) was added (final DMSO concentration was 0.1% in well).
as §3

human TRPA1 = target: T2, human TRPA1 (Homo sapiens, UniProt O75762); assay: Calcium 5 dye [Ca]i assay in HEK-293 Flp-In T-REx cells expressing TRPA1 (agonist response); type: cell-based; conditions: for Elevation of [Ca]i in HEK-293 TRPA1 cells compared with HEK-293 EV cells: 10 µM (cinnamaldehyde 300 µM); for Change of Ca5 fluorescence, Mean ± SEM, TRPA1 (10 µM): HEK-293 TRPA1 cells, percentage of predrug baseline; for TRPA1 activation at the highest concentration tested / TRPA1 response compared with the highest concentration of cinnamaldehyde (300 µM) / TRPA1 response, Mean± SEM (N): 30 µM; for TRPA1 response, Mean± SEM (N): one-way ANOVA comparison with cinnamaldehyde 300 µM; for [Ca]i response (change in fluorescence), individual replicates: sheet Figure 3(E); for Emax ± SEM % TRPA1 (30 µM): highest tested concentration (30 µM) or derived from concentration-response curves (cinnamaldehyde); for Change in Ca5 fluorescence, individual experiments (CRC raw data): TRPA1 cells
T2 construct: Life Technologies (cells); host or cells: Flp-In T-REx HEK-293
T2 sequence (O75762 whole entry): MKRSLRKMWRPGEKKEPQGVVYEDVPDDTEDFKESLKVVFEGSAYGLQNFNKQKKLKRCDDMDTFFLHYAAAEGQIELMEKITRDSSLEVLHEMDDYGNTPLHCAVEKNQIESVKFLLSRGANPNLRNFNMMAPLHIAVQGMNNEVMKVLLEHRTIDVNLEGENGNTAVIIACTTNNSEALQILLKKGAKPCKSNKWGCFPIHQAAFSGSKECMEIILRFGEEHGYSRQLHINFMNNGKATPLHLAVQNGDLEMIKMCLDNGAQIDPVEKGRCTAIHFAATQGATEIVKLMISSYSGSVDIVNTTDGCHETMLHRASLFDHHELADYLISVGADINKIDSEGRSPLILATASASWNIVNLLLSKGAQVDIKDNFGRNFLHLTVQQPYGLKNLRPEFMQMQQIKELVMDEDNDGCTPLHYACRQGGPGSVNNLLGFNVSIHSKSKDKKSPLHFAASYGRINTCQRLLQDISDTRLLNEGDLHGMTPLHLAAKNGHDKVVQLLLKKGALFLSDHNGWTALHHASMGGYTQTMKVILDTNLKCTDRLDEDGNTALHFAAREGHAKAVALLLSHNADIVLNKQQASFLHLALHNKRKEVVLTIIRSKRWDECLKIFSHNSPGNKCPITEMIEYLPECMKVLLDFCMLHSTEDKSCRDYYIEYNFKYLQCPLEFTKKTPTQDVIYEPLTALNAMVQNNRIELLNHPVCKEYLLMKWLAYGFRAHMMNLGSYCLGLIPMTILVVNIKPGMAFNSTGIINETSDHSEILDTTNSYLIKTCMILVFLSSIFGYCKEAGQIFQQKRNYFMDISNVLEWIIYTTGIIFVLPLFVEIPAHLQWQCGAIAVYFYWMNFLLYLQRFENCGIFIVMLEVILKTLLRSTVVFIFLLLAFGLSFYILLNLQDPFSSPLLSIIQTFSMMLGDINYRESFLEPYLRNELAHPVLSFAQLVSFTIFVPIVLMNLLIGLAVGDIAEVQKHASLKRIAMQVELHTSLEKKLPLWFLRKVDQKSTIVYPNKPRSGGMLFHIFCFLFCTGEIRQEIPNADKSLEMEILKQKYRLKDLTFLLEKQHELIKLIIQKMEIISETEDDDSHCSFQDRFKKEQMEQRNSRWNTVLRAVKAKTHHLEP
Experimental: as §1, §2, §3

| SMILES | Elevation of [Ca]i in HEK-293 TRPV1 cells compared with HEK-293 EV cells (human TRPV1) | Change of Ca5 fluorescence, Mean ± SEM, TRPV1 (10 µM) (human TRPV1) [%] | TRPV1 response, Mean± SEM (N) (human TRPV1) | Change in Ca5 fluorescence, individual experiments (CRC raw data) (human TRPV1; log concentration -4.52288 (M)) | Change in Ca5 fluorescence, individual experiments (CRC raw data) (human TRPV1; log concentration -5 (M)) | Change in Ca5 fluorescence, individual experiments (CRC raw data) (human TRPV1; log concentration -5.52288 (M)) | Change in Ca5 fluorescence, individual experiments (CRC raw data) (human TRPV1; log concentration -6 (M)) | Change in Ca5 fluorescence, individual experiments (CRC raw data) (human TRPV1; log concentration -6.52288 (M)) | Change in Ca5 fluorescence, individual experiments (CRC raw data) (human TRPV1; log concentration -7 (M)) | Change of Ca5 fluorescence, Mean ± SEM, EV (10 µM) (HEK-293 EV cells) [%] | Elevation of [Ca]i in HEK-293 TRPA1 cells compared with HEK-293 EV cells (human TRPA1) | Change of Ca5 fluorescence, Mean ± SEM, TRPA1 (10 µM) (human TRPA1) [%] | TRPA1 activation at the highest concentration tested (human TRPA1) | TRPA1 response compared with the highest concentration of cinnamaldehyde (300 µM) (human TRPA1) | TRPA1 response, Mean± SEM (N) (human TRPA1) | Emax ± SEM % TRPV1 (30 µM) (human TRPV1) [%] | Emax ± SEM % TRPA1 (30 µM) (human TRPA1) [%] | Change in Ca5 fluorescence, individual experiments (CRC raw data) (human TRPA1; log concentration -4.52288 (M)) | Change in Ca5 fluorescence, individual experiments (CRC raw data) (human TRPA1; log concentration -5 (M)) | Change in Ca5 fluorescence, individual experiments (CRC raw data) (human TRPA1; log concentration -5.52288 (M)) | further results |
| --- | --- | --- | --- | --- | --- | --- | --- | --- | --- | --- | --- | --- | --- | --- | --- | --- | --- | --- | --- | --- | --- |
| CCCCC/C=C\C/C=C\C/C=C\C/C=C\CCCC(=O)OC(CO)CO [2-AG, 2-arachidonoylglycerol] | did not produce a notable change | 30 ± 12 | 78± 56 | 27.3329 and 112.734 and 162.217 and 44.4524 and 123.109 and 0.2559 | 7.357 and 86.123 and 26.0517 and 22.0298 and 37.7022 and 3.715 | 1.982 and 59.8686 and 3.625 and 7.304 and 11.7183 and 5.763 | 3.178 and 11.4308 and 1.524 and 2.296 and 1.51 and 5.0359 | 2.799 and 5.91 and 1.131 and 13.0737 and 2.188 and 2.217 | 3.868 and 2.533 and 1.007 and 9.752 and 4.95 and 2.563 | 4 ± 2 | did not produce a change | 6 ± 1 | activated TRPA1 | significantly smaller | 109 ± 60 |  |  |  |  |  | Emax at 30 µM (human TRPV1; HEK293, read-out: Emax ± SEM % TRPV1 (30 µM)): 78 ± 26%; Emax at 30 µM (human TRPA1; HEK293, read-out: Emax ± SEM % TRPA1 (30 µM)): 109 ± 68%; [Ca]i response (change in fluorescence), individual replicates (human TRPA1; concentration -4.52288 (log)): 14.9622 and 7.179 and 134.366 and 9.127 and 431.447 and 54.77; [Ca]i response (change in fluorescence), individual replicates (human TRPA1; concentration -5 (log)): 4.64 and 4.022 and 10.3661 and 3.3919 and 6.211 and 4.731; [Ca]i response (change in fluorescence), individual replicates (human TRPA1; concentration -5.52288 (log)): 6.153 and 3.314 and 8.987 and 3.008 and 4.615 and 3.811; [Ca]i response (change in fluorescence), individual replicates (human TRPA1; concentration -6 (log)): 6.477 and 4.178 and 4.8275 and 2.1815 and 3.7711 and 3.334; [Ca]i response (change in fluorescence), individual replicates (human TRPA1; concentration -6.52288 (log)): 5.571 and 5.908 and 5.712 and 6.071 and 7.256 and 4.936; [Ca]i response (change in fluorescence), individual replicates (human TRPA1; concentration -7 (log)): 4.596 and 9.253 and 10.2641 and 5.393 and 9.276 and 4.379 |
| CCCCC/C=C\C/C=C\C/C=C\CCCCC(=O)NCCO [γ-LEA, γ-linolenoyl ethanolamide] | significantly greater | 277 ± 67 | 354± 56 | 350.183 and 323.986 and 542.155 and 300.489 and 279.486 and 328.331 | 408.892 and 291.398 and 513.101 and 87.8703 and 117.804 and 243.201 | 21.7947 and 80.3389 and 37.6766 and 7.854 and 2.348 and 95.5783 | 179.174 and 9.167 and 5.6781 and 5.979 and 3.41 and 2.934 | 5.188 and 2.355 and 8.6025 and 1.698 and 1.3988 and 2.387 | 0.9319 and 4.487 and 3.741 and 0.8649 and 0.1851 and 3.24 | 11 ± 2 | significantly greater | 87 ± 32 | activated TRPA1 | did not differ | 311 ± 60 | 354 ± 39 | 311 ± 11 | 346.049 and 274.809 and 332.645 and 317.863 and 295.869 and 300.839 | 11.624 and 8.016 and 83.7476 and 222.133 and 100.409 and 97.3092 | 5.237 and 1.372 and 11.2552 and 5.494 and 2.231 and 27.0912 | Maximal TRPV1 response compared with the highest concentration of capsaicin (human TRPV1; 30 µM vs capsaicin 10 µM): did not differ; Change in Ca5 fluorescence, individual experiments (CRC raw data) (human TRPA1; log concentration -6 (M)): 2.963 and 1.112 and 12.1911 and 2.48 and 2.092 and 1.749; Change in Ca5 fluorescence, individual experiments (CRC raw data) (human TRPA1; log concentration -6.52288 (M)): 0.5786 and 1.167 and 6.112 and 4.171 and 1.807 and 1.825; Change in Ca5 fluorescence, individual experiments (CRC raw data) (human TRPA1; log concentration -7 (M)): 0.7736 and 1.971 and 6.385 and 5.071 and 2.235 and 0.6536 |
| CC/C=C\C/C=C\C/C=C\C/C=C\C/C=C\CCCC(=O)NCCO [EPEA, eicosapentaenoyl ethanolamide] | did not produce a notable change | 15 ± 8 | 51± 56 | 12.8698 and 124.435 and 117.092 and 13.2242 and 28.647 and 8.814 | 6.443 and 53.2228 and 9.9712 and 11.9185 and 2.5776 and 3.793 | 5.664 and 10.8694 and 3.209 and 12.2234 and 1.072 and 3.982 | 2.913 and 5.488 and 1.312 and 9.151 and 2.704 and 1.489 | 3.773 and 2.311 and 2.08 and 9.31 and 0.4729 and 1.052 | 7.0578 and 1.12 and 6.0854 and 9.074 and 2.61 and 2.864 | 3 ± 1 | did not produce a change | 50 ± 40 | activated TRPA1 | significantly smaller | 274± 60 | 51 ± 22 | 274 ± 27 | 345.33 and 330.592 and 234.198 and 185.482 and 229.324 and 316.639 | 250.67 and 8.984 and 4.299 and 4.23 and 22.2267 and 8.362 | 6.789 and 4.391 and 2.799 and 3.328 and 5.534 and 8.248 | Change in Ca5 fluorescence, individual experiments (CRC raw data) (human TRPA1; log concentration -6 (M)): 2.3186 and 6.477 and 1.9747 and 2.489 and 1.415 and 7.402; Change in Ca5 fluorescence, individual experiments (CRC raw data) (human TRPA1; log concentration -6.52288 (M)): 2.468 and 7.816 and 1.613 and 1.7019 and 8.366 and 8.252; Change in Ca5 fluorescence, individual experiments (CRC raw data) (human TRPA1; log concentration -7 (M)): 1.245 and 5.751 and 2.391 and 4.163 and 4.153 and 8.202 |
